The results in this text go back to the NIST ThermoML archive (doi:10.1021/je200697m).

The conditions of the series: Liquid.

Structures are written as SMILES. Numbers after ± are expanded uncertainties.

Consider `COC(=O)OC` [dimethyl carbonate], for which, for the setting “363.41 K”, the “vapor or sublimation pressure” value came out at 101.32 ± 1.7 kPa.

For `CO` [methanol], the “vapor or sublimation pressure” value (337.84 K) was 101.32 ± 1.7 kPa.

In general, vapor or sublimation pressure refers to the pressure of vapour in equilibrium with the condensed phase.
